According to patent US20160194683A1, “Gas Biosensors” (priority 2013, published 2016):
Read-outs that look alike come from different tables or passages of the source.

Tests used:
[1] = system: FruR of Erwinia herbicola; conditions: cited from earlier work
[2] = system: E. coli MG1655; test: Growth of E. coli MG1655 MHT integration strains in LB plus 200 mM KBr; type: cell-based; conditions: headspace gas collected at 5 hrs
Description: Three strains carrying an integrated Batis maritima MHT gene (BmMHT) were created by coupling the BmMHT gene to a constitutive promoter (P14) and three ribosomal binding sites (RBS) with different strengths (BCD2, BCD8, BCD14) in the integration vector pOSIP. Each was integrated into the phage 186 attachment site within the genome of E. coli MG1655 using the site specific recombinase from phage 186. Strains having the desired chromosomal insertions were verified by PCR.
Cells with a genomic copy of the MHT construct under control of the three different RBS were then tested for MHT activity by growing the cells in LB plus 200 mM KBr. Headspace gas was collected at 5 hrs, and CH3Br measured by GC-MS.
The CH3Br gas was readily detectable in the headspace, whereas the uninduced vector control cells produced no gas at all.

[3] = molecular target: T1, TodST of P. putida (Pseudomonas putida, UniProt A5W4E3); conditions: host P. putida str. F1; todXp-luxCDABE; cited from earlier work
T1 construct: host or cells: P. putida str; F1
T1 sequence (A5W4E3 whole entry): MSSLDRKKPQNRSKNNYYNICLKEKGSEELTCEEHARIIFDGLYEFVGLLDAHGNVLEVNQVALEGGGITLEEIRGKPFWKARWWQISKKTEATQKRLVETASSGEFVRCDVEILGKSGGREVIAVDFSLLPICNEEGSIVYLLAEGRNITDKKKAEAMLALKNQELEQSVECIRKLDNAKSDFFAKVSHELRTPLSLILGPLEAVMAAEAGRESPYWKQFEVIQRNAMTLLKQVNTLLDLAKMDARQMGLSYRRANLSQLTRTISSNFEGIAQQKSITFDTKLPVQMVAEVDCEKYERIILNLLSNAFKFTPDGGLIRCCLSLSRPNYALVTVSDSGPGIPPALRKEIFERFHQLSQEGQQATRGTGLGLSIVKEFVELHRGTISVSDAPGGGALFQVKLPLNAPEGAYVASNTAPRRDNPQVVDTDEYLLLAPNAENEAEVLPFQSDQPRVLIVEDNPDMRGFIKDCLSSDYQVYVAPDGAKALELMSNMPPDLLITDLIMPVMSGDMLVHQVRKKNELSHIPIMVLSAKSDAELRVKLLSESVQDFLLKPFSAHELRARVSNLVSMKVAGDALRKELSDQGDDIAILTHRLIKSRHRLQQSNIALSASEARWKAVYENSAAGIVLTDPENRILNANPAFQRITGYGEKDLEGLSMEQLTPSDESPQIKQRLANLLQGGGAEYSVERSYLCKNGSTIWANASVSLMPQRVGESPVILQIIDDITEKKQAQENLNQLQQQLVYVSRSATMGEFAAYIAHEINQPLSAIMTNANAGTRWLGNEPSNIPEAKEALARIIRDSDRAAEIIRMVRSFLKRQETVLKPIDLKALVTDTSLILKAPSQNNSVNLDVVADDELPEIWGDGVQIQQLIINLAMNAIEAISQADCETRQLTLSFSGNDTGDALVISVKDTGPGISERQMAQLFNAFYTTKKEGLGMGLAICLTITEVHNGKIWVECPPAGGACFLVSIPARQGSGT

[4] = system: DmpR of P. putida; conditions: host P. putida; Po-luxAB; cited from earlier work
[5] = molecular target: AraC of E. coli (Escherichia coli, UniProt P0A9E0); conditions: cited from earlier work
AraC of E. coli, sequence (P0A9E0 whole entry): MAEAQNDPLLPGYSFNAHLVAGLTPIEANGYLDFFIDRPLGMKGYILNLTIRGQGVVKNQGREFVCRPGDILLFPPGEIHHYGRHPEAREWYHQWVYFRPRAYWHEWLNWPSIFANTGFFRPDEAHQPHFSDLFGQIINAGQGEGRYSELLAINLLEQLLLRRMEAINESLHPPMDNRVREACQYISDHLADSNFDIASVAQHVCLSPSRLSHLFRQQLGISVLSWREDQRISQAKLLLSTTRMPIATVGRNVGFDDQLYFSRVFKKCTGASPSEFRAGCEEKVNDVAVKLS

[6] = system: ArsR of E. coli; conditions: host E. coli; arsRp-luxAB; cited from earlier work
[7] = molecular target: XylR of Pseudomonas putida (Pseudomonas putida, UniProt P06519)
XylR of Pseudomonas putida, sequence (P06519 whole entry): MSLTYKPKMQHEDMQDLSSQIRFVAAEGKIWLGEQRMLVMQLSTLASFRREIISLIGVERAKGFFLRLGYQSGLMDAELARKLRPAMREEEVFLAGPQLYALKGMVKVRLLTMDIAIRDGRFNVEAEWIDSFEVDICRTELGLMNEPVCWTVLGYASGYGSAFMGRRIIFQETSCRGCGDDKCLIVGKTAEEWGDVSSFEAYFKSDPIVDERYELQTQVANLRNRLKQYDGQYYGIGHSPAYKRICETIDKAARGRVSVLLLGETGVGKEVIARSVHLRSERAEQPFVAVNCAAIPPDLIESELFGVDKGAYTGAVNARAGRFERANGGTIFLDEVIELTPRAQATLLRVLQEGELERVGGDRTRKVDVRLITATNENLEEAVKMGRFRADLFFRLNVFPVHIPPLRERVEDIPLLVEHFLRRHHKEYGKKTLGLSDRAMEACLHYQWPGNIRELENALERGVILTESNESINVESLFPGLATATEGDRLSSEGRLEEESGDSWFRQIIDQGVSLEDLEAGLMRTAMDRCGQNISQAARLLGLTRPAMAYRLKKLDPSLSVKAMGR

[8] = system: SOS response proteins of B. subtilis; conditions: host B. subtilis; yorBp-lucFF; cited from earlier work
[9] = system: Crp-cAMP transcriptional dual regulator of E. coli; conditions: host E. coli; grpEP-luxCDABE; increase in intracellular misfolded proteins; cited from earlier work
[10] = system: TbuT of Ralstonia pickettii; conditions: host E. coli; tbuAlp-luxAB; cited from earlier work
[11] = molecular target: T2, NahR of P. putida (Pseudomonas putida, UniProt P10183); conditions: host P. putida; nahGp-luxAB; cited from earlier work
T2 construct: host or cells: P. putida
T2 sequence (P10183 1-300): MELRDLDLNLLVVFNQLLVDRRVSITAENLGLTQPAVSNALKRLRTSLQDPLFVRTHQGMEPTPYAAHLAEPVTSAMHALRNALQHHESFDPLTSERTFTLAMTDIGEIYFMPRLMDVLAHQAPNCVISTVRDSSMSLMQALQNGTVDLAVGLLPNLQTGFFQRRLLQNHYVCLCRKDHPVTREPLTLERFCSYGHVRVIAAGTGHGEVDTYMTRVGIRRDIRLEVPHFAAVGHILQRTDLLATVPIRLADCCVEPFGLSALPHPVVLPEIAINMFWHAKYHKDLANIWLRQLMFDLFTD

[12] = system: DnaK and σ32 of E. coli; conditions: host E. coli; dnaKp-luxCDABE; increase in intracellular misfolded proteins; cited from earlier work
[13] = system: SpoIIID and σ^E of B. subtilis; conditions: host B. subtilis; yheI-lucFF; cited from earlier work
[14] = system: RecA-LexA of E. coli; conditions: host E. coli; reAp-luxCDABE; cited from earlier work
[15] = system: RecA-LexA of E. coli; conditions: host E. coli; sfiA-lacZ; cited from earlier work
[16] = system: PhnR of Burkholderia sartisoli; conditions: host B. sartisoli; phnSp-luxAB; cited from earlier work
[17] = system: MphR of E. coli; conditions: host E. coli; mphAp-lacZ; cited from earlier work
[18] = host Escherichia coli; Pu-lucFF; cited from earlier work

Molecule: OC[C@H]1O[C@@](CO)(O[C@H]2O[C@H](CO)[C@@H](O)[C@H](O)[C@H]2O)[C@@H](O)[C@@H]1O [sucrose]
- Detection sensitivity [1]: ~2 µM

Molecule: Br [bromine ions]
- Toxicity to cells (cell growth) [2]: Neither the bromine ions, nor the CH3Br gas were toxic

Molecule: Oc1ccccc1 [Phenol]
- Detection sensitivity [3]: 0.3 µM
- Detection sensitivity [4]: 3 µM

Molecule: O=C[C@H](O)[C@@H](O)[C@@H](O)CO [L-Arabinose]
- Detection sensitivity [5]: 0.5 µM

Molecule: Arsenite
- Detection sensitivity [6]: 5 nM

Molecule: antimonite
- Detection sensitivity [6]: 5 nM

Molecule: Cc1cccc(C)c1 [m-xylene]
- EC50 ([7]; read-out: K1/2 of luminescence concentration dependence; E. coli, firefly luciferase under XylR and Pu; means±standard deviations; cited from earlier work): 39 ± 3.8 µM
- Detection sensitivity [3]: 0.3 µM

Molecule: ClC=C(Cl)Cl [trichloroethene]
- Detection sensitivity [3]: 0.3 µM

Molecule: O=C(O)c1cn(C2CC2)c2cc(N3CCNCC3)c(F)cc2c1=O [ciprofloxacin]
- Detection sensitivity [8]: 60 nM

Molecule: Oc1c(Cl)c(Cl)c(Cl)c(Cl)c1Cl [pentachlorophenol]
- Detection sensitivity [9]: 0.14 nM

Molecule: O=C(CO)[C@@H](O)[C@H](O)[C@H](O)CO [Fructose]
- Detection sensitivity [1]: ~2 µM

Molecule: Cc1ccccc1 [toluene]
- Detection sensitivity [7, 18]: 40 µM
- Detection sensitivity [3]: 0.3 µM
- Detection sensitivity [10]: 0.24 µM

Molecule: O=C(O)c1ccccc1O [salicylate]
- Detection sensitivity [11]: 10 nM

Molecule: CO [methanol]
- Detection sensitivity [12]: 0.25M methanol,

Molecule: Xylene
- Detection sensitivity [7, 18]: 40 µM
- Detection sensitivity [10]: 0.24 µM

Molecule: CC(=O)NC[C@H]1CN(c2ccc(N3CCOCC3)c(F)c2)C(=O)O1 [linezolid]
- Detection sensitivity [13]: 0.1 µM

Molecule: c1ccccc1 [Benzene]
- Detection sensitivity [7, 18]: 40 µM
- Detection sensitivity [3]: 0.3 µM
- Detection sensitivity [10]: 0.24 µM

Molecule: CBr [CH3Br]
- Toxicity to cells (cell growth) [2]: Neither the bromine ions, nor the CH3Br gas were toxic

Molecule: mitomycin C
- Detection sensitivity [14]: 0.2 nM mitomycin C
- Detection sensitivity [15]: 4 nM mitomycin C

Molecule: c1ccc2c(c1)ccc1ccccc12 [phenanthrene]
- Detection sensitivity [16]: 0.17 µM

Molecule: Cc1ccc(C)cc1 [p-xylene]
- Detection sensitivity [3]: 0.3 µM

Molecule: c1ccc2ccccc2c1 [Naphthalene]
- Detection sensitivity [16]: 0.17 µM
- Detection sensitivity [11]: 10 nM

Molecule: CC[C@H]1OC(=O)[C@H](C)[C@@H](O[C@H]2C[C@@](C)(OC)[C@@H](O)[C@H](C)O2)[C@H](C)[C@@H](O[C@@H]2O[C@H](C)C[C@H](N(C)C)[C@H]2O)[C@](C)(O)C[C@@H](C)C(=O)[C@H](C)[C@@H](O)[C@]1(C)O [erythromycin]
- Detection sensitivity [17]: ~10 µM

Molecule: Cc1cccc(CO)c1 [3-methylbenzylalcohol]
- EC50 ([7]; E. coli, firefly luciferase under XylR and Pu; means±standard deviations; read-out: K1/2 of luminescence concentration dependence; cited from earlier work): 2690 µM
